Assay: Human HepG2 cell viability assay in 384 well format
Type: toxicity, cell-based
Design: dose 125 nL, time 70.5 hour; cytotoxicity at 70.5 h: concentration not given beside the values
Conditions: HepG2 cells, read-out: Inhibition

Row | SMILES | cytotoxicity at 70.5 h [%]
1 | Cc1ccc(N2CCCN(C(=O)C(C)OCC3CC3)CC2)nn1 (centres undefined) | -11.3
2 | COCCN(Cc1nccs1)C(=O)c1c(C)cc(C)[nH]c1=O | 12.2
3 | CC(Cn1cccn1)NC(=O)Nc1nccs1 (centres undefined) | -21.9
4 | Cc1noc(C)c1CN1CCC(c2nc3cc(Cl)ccc3o2)CC1 | -14.6
5 | Cc1cc(NCCNc2cccnc2)nc(N)n1 | 12.3
6 | Cc1noc(C)c1CN(C)C(=O)NC1CCN(C2CC2)CC1 | -2.65
7 | O=C(CNC(=O)N(Cc1ccoc1)C1CCCCC1)N1CCCC1 | -7.2
8 | C[C@@H]1CN(CC(C)(C)N2CCOCC2)CC[C@@]1(O)C1CCOCC1 | 7.82
9 | CC(=O)N1CCC2(CC1)C(=O)N(CC1CCN(C)CC1)c1ccccc12 | -8.7
10 | Cc1cc(C)c(C(=O)N2CCOCC2c2c(C)nn(C)c2C)o1 (centres undefined) | -12.3
11 | Cc1cc(C2CCCN2C(=O)NCc2cccc(F)c2)on1 (centres undefined) | -8.57
12 | COCCN1CCC(NC(=O)C/C=C/c2ccc(C(C)C)cc2)CC1 | 2.87
13 | COC(C)c1cccc(NCc2cccs2)c1 (centres undefined) | -3.58
14 | CC(=O)Nc1nc(C(=O)N2CCCCC2Cn2cccn2)cs1 (centres undefined) | -0.594
15 | CS(=O)(=O)N1C[C@H]2CNC[C@@]2(C(=O)NCCOc2ccccc2)C1 | -1.07
16 | COCC1CN(C(=O)Nc2cc(Br)ccc2F)CCO1 (centres undefined) | -10.1
17 | CC(O)CN(Cc1cccc(C(=O)N(C)C)c1)c1ccccc1 (centres undefined) | -3.2
18 | CCN(Cc1noc(C2CC2)n1)C(=O)c1onc2ccccc12 | -8.65
19 | CCOC(=O)CNC(=O)C1CN(C(=O)c2cnccn2)C1 | -5.07
20 | C=C/C=c1\c(=C/C)oc2c(NCc3ccccc3)nc(CC)nc12 | 11.2
21 | CC(C)CCC(=O)N1CCCC1c1nnc2n1CCCCC2 (centres undefined) | -6.64
22 | O=C(CN1CCCCC1Cn1cncn1)NCCc1ccc(F)cc1 (centres undefined) | 32.1
23 | COCCN1C[C@H]2CC[C@@H]1CN(C(=O)CCn1cc(Cl)cn1)C2 | -10.6

Row | SMILES | cytotoxicity at 70.5 h [%]
24 | NCC1(c2cccc(C(F)(F)F)c2)CCC1 | -2.75
25 | O=C(c1ccco1)N1CCCC12CCN(c1ncccn1)CC2 | -7.14
26 | Cc1ccccc1CCC1CCCN(Cc2c(C)[nH]c(=O)[nH]c2=O)C1 (centres undefined) | -8.6
27 | COc1cc(COCC2CCN(Cc3ccccn3)CC2)cc(OC)c1 | -8.26
28 | CN(C)C1COC2(CCN(Cc3ccc4c(c3)OCO4)CC2)C1 (centres undefined) | 2.59
29 | Clc1ccc(NCc2nnc(C3CC3)o2)cc1Cl | 24.8
30 | Cc1nnc2ccc(OCCNS(C)(=O)=O)nn12 | -0.867
31 | N#Cc1ccc(OC[C@]23COC[C@H]2CN(Cc2nccs2)C3)nc1 | -4.7
32 | CCOc1ccc(C(=O)Nc2ccn(CC)n2)cc1 | -1.03
33 | CCC(CNC(=O)NCc1cc[nH]n1)N1CCCC1 (centres undefined) | -4.31
34 | COCCCN(Cc1ccccn1)S(=O)(=O)Cc1ccccc1 | -18.4
35 | Cc1nnc(CN2CCN(CC(O)c3ccccc3)CC2)o1 (centres undefined) | -1.4
36 | CC(NC(=O)c1cc(-c2cccc(Cl)c2)no1)C(=O)N1CCCC1 (centres undefined) | -10.6
37 | O=C(NCCc1ccc2c(c1)OCO2)C1CCCN(Cc2ccco2)C1 (centres undefined) | 1.41
38 | CCn1cc2c(n1)CN(S(=O)(=O)c1cn(C)cn1)CC2COC (centres undefined) | -3.24
39 | Cc1noc2ncc(C(=O)NCC3CCOC3)cc12 (centres undefined) | 22
40 | CC(C)(O)CNC(=O)c1sccc1Br | 0.0507
41 | c1coc(-c2nnc(CN3CCOC(Cn4cccn4)C3)o2)c1 (centres undefined) | 6.43
42 | Cc1ccc(CC(=O)N2CCCC(c3nc(C)cs3)C2)cn1 (centres undefined) | -17.4
43 | Cc1cncc(C(=O)N2CC[C@@H]3[C@H]2CCC(=O)N3CCN(C)C)c1 | 2.21
44 | O=C1COc2c(cccc2C(=O)N2CCCC2Cn2cccn2)N1 (centres undefined) | -8.08
45 | Cc1nc(C)c(CC(=O)N2C[C@@H]3CC[C@H](C2)N(CC2CC2)C3)s1 | -3.8
46 | O=C(NCC1CC1)c1cc(C2CC2)nc2onc(C3CCCNC3)c12 (centres undefined) | -7.5

Row | SMILES | cytotoxicity at 70.5 h [%]
47 | Cc1cnn(CC2CCCCN2C(=O)Cc2cccc(F)c2)c1 (centres undefined) | -10.9
48 | Cc1ccc(S(=O)(=O)N(CC2CCOC2)C2CC2)cc1N(C)C (centres undefined) | 0.338
49 | Cc1ccc(N2CC[C@H]3C[C@@H](C(=O)N4CCOCC4)O[C@H]3C2)nn1 | -0.412
50 | FC(F)(F)c1ccccc1CCC1CCCN(Cc2cscn2)C1 (centres undefined) | 44.3
51 | O=C(Cn1cc(I)cn1)N1CCCCCC1 | -3.07
52 | Cc1ccc(-c2ncc(C(=O)NCCS(N)(=O)=O)s2)c(C)c1 | -1.3
53 | CC(CNC(=O)c1nc(N2CCOCC2)ncc1Cl)c1ccccc1 (centres undefined) | 7.86
54 | Cc1nc(C(=O)N2CCN(C(=O)C3CCC3)[C@@H]3CS(=O)(=O)C[C@@H]32)cs1 | 2.83
55 | COCCC(=O)N1CCC2(CN(Cc3cccc(F)c3)C2)C1 | -7.85
56 | O=C(CCc1cscn1)N1CCCC1c1noc(C2CC2)n1 (centres undefined) | -15.3
57 | CCOC(C)c1noc(CN2CCN(c3nnc(C)s3)CC2)n1 (centres undefined) | -4.45
58 | C=C(C)COc1ccccc1C(=O)NCCc1nncn1C | 25.1
59 | Cc1ccc([C@@H]2CN(S(=O)(=O)N(C)C)C[C@H]2N(C)C)cc1 | -5.83
60 | CN(c1ccc(CNC(=O)c2ccc(O)nc2)cc1)C1CCCCC1 | 0.503
61 | COCCNC(=O)Cc1cnc(-n2cccc2)s1 | -22.5
62 | Cc1ccccc1N1CC(c2nnc(N)s2)CC1=O (centres undefined) | 3.37
63 | Cc1csc(CNC(=O)NCC(C)Cn2nc(C)cc2C)n1 (centres undefined) | -5.06
64 | Cc1ccc(C(=O)NCC(C)Cn2cccn2)c(=O)[nH]1 (centres undefined) | -3.38
65 | Cc1cc(CN2CC[C@H]3C[C@@H](c4nccs4)O[C@@H]3C2)no1 | -2.76
66 | CC(C(=O)N(C)Cc1noc(C2CCC2)n1)N1CCc2ccccc2C1 (centres undefined) | 23.9
67 | CCc1nc(C2CCCN2CCn2cncn2)no1 (centres undefined) | -5.31
68 | Cc1cccc(C(C(=O)NCCc2nc(C)cc(=O)[nH]2)N(C)C)c1 (centres undefined) | 25.6
69 | CCN(CCNS(=O)(=O)N1CCOCC1)C(=O)OC(C)(C)C | 30.7

Row | SMILES | cytotoxicity at 70.5 h [%]
70 | O=C(c1cnnn1-c1ccccc1)N1CCCC(c2ccn[nH]2)C1 (centres undefined) | 48.8
71 | Cc1ccc(C(=O)N2CCC3(CC2)CC(c2ccccc2)C(=O)N3)o1 (centres undefined) | -5.53
72 | CCCN1CCCn2nc(CNS(=O)(=O)c3cnn(CC)c3)cc2C1 | -3.06
73 | CSc1ncc(C(=O)NCCn2nccc2C)cn1 | -2.28
74 | O=C1NC2(Cc3ccccc31)CN(CC1CCNC1)C2 (centres undefined) | -11.5
75 | Cn1ccnc1SCc1nc(C(C)(C)NC(=O)OC(C)(C)C)no1 | 12
76 | CCCc1nc2c(c(C)c(C)n2Cc2cccnc2)c(N)c1CC | 54.7
77 | Cc1cccc(CN2CCCC3(CCC(=O)N3CCN(C)C)CC2)n1 (centres undefined) | -3.65
78 | O=C(NCc1nnc2n1CCCC2)c1cn(-c2ccccc2)nn1 | -4.64
79 | COc1ccc(OC)c2c(C)cc(N(C)CCCO)nc12 | 4.59
80 | COc1ncc(-c2cc(NC3CCCC3)nc3[nH]ccc23)c(OC)n1 | -12
81 | Cc1cnc(C(=O)NCC2CCOc3ccccc3C2)cn1 (centres undefined) | 14.4
82 | CN1CCCC1c1ccc(C(=O)Nc2c3c(nn2C)CCC3)s1 (centres undefined) | -13
83 | Cn1cccc1C(O)CNC(=O)c1ccc2nsnc2c1 (centres undefined) | -14.5
84 | CCOC(C)c1nc(CNc2cccc(Cl)c2OC)cs1 (centres undefined) | 8.97
85 | CS(=O)(=O)NCc1ncn2c1CN(C(=O)CC1CCCC1)CCC2 | -5.42
86 | Cc1ccc(F)c2c1N(C(=O)c1cn(CC(=O)N(C)C)nn1)CCC2 | -10.6
87 | CN(C)C(=O)CN1CCN(c2ncccn2)[C@@H]2CS(=O)(=O)C[C@@H]21 | -3.2
88 | CCc1c(C(=O)O)nnn1-c1cccc(C)c1C | -7.95
89 | CCC(C)C(=O)NCc1cc(Br)c(OC)c(OC)c1 (centres undefined) | -6.76
90 | Cc1cccc(C(=O)N2CCC(Cc3cnc4[nH]ccc4c3)CC2)n1 | -7.84
91 | O=C1Cc2cc(NC(=O)N3CCCN(Cc4cccs4)CC3)ccc2N1 | -4.49
92 | O=C1CC[C@@H]2[C@@H](CCN2S(=O)(=O)C2CC2)N1CC1CC1 | 18.2

Row | SMILES | cytotoxicity at 70.5 h [%]
93 | CC(Cn1cccn1)NC(=O)NCCN1CCc2ccccc2C1 (centres undefined) | 0.199
94 | c1ccc(CN2CCN(c3ccc4nncn4n3)CC2)nc1 | -9.47
95 | CN(C)c1cccc(C(=O)Nc2ccn(CCc3ccncc3)n2)c1 | -12.6
96 | CC(C)COC1CCN(C(=O)c2cc3ccccc3c(=O)[nH]2)CC1 | -4.65
97 | O=C(C1CCOCC1)N1CCC2(CCC(C(=O)N3CCCC3)O2)CC1 (centres undefined) | -6.14
98 | CCOc1cc(CNCC2CN(C3CC3)CCO2)ccc1OC (centres undefined) | -8.19
99 | O=C(CC1CCCC1)Nc1ccc(-n2cc(Cl)cn2)nc1 | -12.3
100 | O=C(CC1CCCC1)N1C[C@@H]2CN(Cc3ccoc3)CCO[C@@H]2C1 | -11.5
101 | CCCOc1cc(C)ccc1NC(=O)NCCC(=O)N(C)C | -2.29
102 | CC(C)(C)CC(=O)NCCCn1cncn1 | -6.64
103 | CCC(=O)N1CCN(C(=O)c2ccc(OC)o2)[C@H]2CS(=O)(=O)C[C@H]21 | -4.25
104 | COC(=O)c1ccc(OC)c(OC23CCCN(CC2)C3)c1 (centres undefined) | -8.44
105 | Cc1nc(N(C)C)ncc1C(=O)NCCCn1nccc1C1CC1 | 6.49
106 | Cc1nc(C(=O)N2CCN(S(C)(=O)=O)CC2)c(-c2cccc(F)c2)s1 | 9.8
107 | CC(Cn1ccnc1)NCc1nncn1C1CCCCC1 (centres undefined) | -1.11
108 | CN(C)C(CNC(=O)NCc1ccco1)c1cccs1 (centres undefined) | -6.4
109 | Cc1csc(CN(C)C(=O)Nc2cc(F)cc(N3CCCC3)c2)n1 | -11.9
110 | O=C(c1sccc1C1CC1)N1CCN(c2ncccn2)CC1 | -0.605
111 | O=C(NCC1COCc2c(-c3ccncc3)nnn2C1)[C@H]1CCCO1 (some centres undefined) | -0.723
112 | Cc1cccc(CN2CC3(CCN(C(=O)C4CC4)CC3)OCC2=O)n1 | 1.74
113 | Cc1ccc2c(-c3nc4c([nH]3)CCNC4C(=O)O)cccc2n1 (centres undefined) | -0.899
114 | c1ccc(Cc2noc(CCNC3CCOC4(CCOCC4)C3)n2)cc1 (centres undefined) | 11.9

Reference: ChEMBL document CHEMBL3507680, “University of Dundee, Gates Library screen for HepG2 cell viability”
